US12162858B2, “Quinoline derivatives as inhibitors of AXL/MER RTK and CSF1R” (QURIENT CO., LTD., priority 2018, dated 2024)

Assays:
[1] = biological target: T1, Axl (Homo sapiens, UniProt P30530); assay: Cellular Axl inhibition ELISA (p-Axl, Gas6-induced) using H1299 cells; assay type: cell-based; set-up: especially H1299 cell endogenously expresses Axl; endogenous in cells; host or cells: H1299; details: read-out: Cellular Axl activity by H1299 Elisa (IC50)
T1 sequence (P30530 26-894): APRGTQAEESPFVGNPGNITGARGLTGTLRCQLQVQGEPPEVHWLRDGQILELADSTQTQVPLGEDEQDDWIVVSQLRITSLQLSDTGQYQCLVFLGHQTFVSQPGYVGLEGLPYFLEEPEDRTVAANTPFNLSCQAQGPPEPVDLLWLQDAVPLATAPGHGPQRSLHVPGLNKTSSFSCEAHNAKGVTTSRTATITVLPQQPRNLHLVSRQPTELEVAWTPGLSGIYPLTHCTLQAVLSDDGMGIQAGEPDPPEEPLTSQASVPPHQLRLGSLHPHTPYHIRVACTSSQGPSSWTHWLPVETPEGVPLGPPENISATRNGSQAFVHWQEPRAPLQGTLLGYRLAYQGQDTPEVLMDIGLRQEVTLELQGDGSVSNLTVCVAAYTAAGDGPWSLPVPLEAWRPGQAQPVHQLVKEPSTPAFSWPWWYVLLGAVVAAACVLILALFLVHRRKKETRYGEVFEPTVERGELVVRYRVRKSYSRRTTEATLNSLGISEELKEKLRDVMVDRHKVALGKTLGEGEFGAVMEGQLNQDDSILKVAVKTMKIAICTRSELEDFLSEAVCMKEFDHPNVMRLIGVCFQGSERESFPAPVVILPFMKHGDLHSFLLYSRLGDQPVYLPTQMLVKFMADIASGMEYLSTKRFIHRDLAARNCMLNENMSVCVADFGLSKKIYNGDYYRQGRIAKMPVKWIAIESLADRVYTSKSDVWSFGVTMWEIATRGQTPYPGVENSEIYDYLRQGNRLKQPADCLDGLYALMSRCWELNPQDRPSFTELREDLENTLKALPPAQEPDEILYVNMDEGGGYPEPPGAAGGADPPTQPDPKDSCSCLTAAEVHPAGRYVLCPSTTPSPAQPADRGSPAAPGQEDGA
How it was run: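 H1299 cells, seeded overnight, exposed 24 h at 37 °C to 10-point 3-fold compound dilutions, then stimulated with 200 ng/ml human Gas6 (final) for 1 h. Lysates assayed for p-Axl by sandwich ELISA with HRP/TMB, absorbance 450 nm; IC50 by sigmoidal dose-response fit.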

[2] = biological target: T1, Axl; assay: LanthaScreen Eu kinase binding assay for Axl; details: read-out: Axl kinase binding activity (Kd)
How it was run: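 Kd values come from control-normalized FRET loss, referenced to DMSO vehicle wells, after 1 h at room temperature. Each compound was serially diluted over eight steps in DMSO and competed against Tracer 236 (Alexa Fluor 647) for the kinase, which was tagged by a Eu anti-GST antibody.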

| Structure (SMILES) | IC50 [1] [nM] | Kd [2] [nM] |
| --- | --- | --- |
| COc1cc2nccc(Oc3ccc(NC(=O)c4nn(C5CCNC5)cc4OCC(F)(F)F)cc3F)c2cc1OC (centres unmarked) [Compound 78] | < 500 | < 100 |
| COc1cc2nccc(Oc3ccc(NC(=O)c4nn(C5CCOC5)cc4OCC(F)(F)F)cc3C)c2cc1OC (centres unmarked) [Compound 85] | < 500 | < 100 |
| COCCn1cc(OCC(F)(F)F)c(C(=O)Nc2ccc(Oc3ccnc4cc(OC)c(OC)cc34)c(C)c2)n1 [Compound 84] | < 500 | < 100 |
| COc1cc2nccc(Oc3ccc(NC(=O)c4nn(CCN)cc4OCC(F)(F)F)cc3C)c2cc1OC [Compound 82] | ≥ 1000 | ≥ 500 |
| COc1cc2nccc(Oc3ccc(NC(=O)c4nn(CCN)cc4OCC(F)(F)F)cc3F)c2cc1OC [Compound 79] | < 500 | < 100 |
| COc1cc2nccc(Oc3ccc(NC(=O)c4nn(C5CCNC5)cc4OCC(F)(F)F)cc3C)c2cc1OC (centres unmarked) [Compound 81] | ≥ 1000 | ≥ 500 |
| COc1cc2nccc(Oc3ccc(NC(=O)c4nn(CC(C)O)cc4OCC(F)(F)F)cc3C)c2cc1OC (centres unmarked) [Compound 83] | < 500 | < 100 |
| COc1cc2nccc(Oc3ccc(NC(=O)c4nn(CC(C)O)cc4OCC(F)(F)F)cc3F)c2cc1OC (centres unmarked) [Compound 80] | < 500 | < 100 |
| COc1cc2nccc(Oc3ccc(NC(=O)c4nn(C5CCNC5)cc4OCC(F)(F)F)cc3)c2cc1OC (centres unmarked) [Compound 86] | < 500 | 100 to 500 |
| COc1cc2nccc(Oc3ccc(NC(=O)c4nn(C5CC5)cc4OCC(F)(F)F)nc3)c2cc1OC [Compound 5] | < 500 | < 100 |
| COc1cc2nccc(Oc3ccc(NC(=O)c4nn(C5CCOC5)cc4OCC(F)(F)F)c(F)c3)c2cc1OC (centres unmarked) [Compound 77] | < 500 | < 100 |

Second part, the molecule after the results:

| IC50 [1] [nM] | Kd [2] [nM] | Structure (SMILES) |
| --- | --- | --- |
| < 500 | < 100 | COc1cc2nccc(Oc3ccc(NC(=O)c4nn(CC5COC5)cc4OCC(F)(F)F)c(F)c3)c2cc1OC [Compound 95] |
| < 500 | < 100 | COc1cc2nccc(Oc3ccc(NC(=O)c4nn(CCC5CCCC5)cc4OCC(F)(F)F)nc3)c2cc1OC [Compound 93] |
| < 500 | < 100 | COc1cc2nccc(Oc3ccc(NC(=O)c4nn(CC(C)O)cc4OCC(F)(F)F)cc3)c2cc1OC (centres unmarked) [Compound 89] |
| < 500 | < 100 | COc1cc2nccc(Oc3ccc(NC(=O)c4nn(CC(C)C)cc4OCC(F)(F)F)cc3)c2cc1OC [Compound 87] |
| < 500 | < 100 | COc1cc2nccc(Oc3ccc(NC(=O)c4nn(C5CCOCC5)cc4OCC(F)(F)F)nc3)c2cc1OC [Compound 90] |
| < 500 | < 100 | COc1cc2nccc(Oc3ccc(NC(=O)c4nn(C5CCN(C)C5)cc4OCC(F)(F)F)c(F)c3)c2cc1OC (centres unmarked) [Compound 94] |
| 500 to 1000 | 100 to 500 | COc1cc2nccc(Oc3ccc(NC(=O)c4nn(CCN)cc4OCC(F)(F)F)cc3)c2cc1OC [Compound 88] |
| < 500 | < 100 | COc1cc2nccc(Oc3ccc(NC(=O)c4nn(C5CCN(C)C5)cc4OCC(F)(F)F)nc3)c2cc1OC (centres unmarked) [Compound 91] |
